Data from patent US20160029626A1 (priority 2011, published 2016).
“Also recorded” adds a separate entry of the source.

Tests used:
X. fastidiosa biofilm = format: cell-based, Xylella fastidiosa 9a5c strain
X. fastidiosa [1] = format: cell-based, Xylella fastidiosa 9a5c strain
biofilm of X. fastidiosa = format: cell-based, Xylella fastidiosa 9a5c strain
[2] = tested on: citrus variegated chlorosis (CVC), X. fastidiosa; design: species or system orange pear (Citrus sinenses); details: in vivo
X. fastidiosa [3] = tested on: X. fastidiosa; design: species or system orange pear (Citrus sinenses); details: in vivo
X. fastidiosa [4] = tested on: X. fastidiosa; design: species or system orange pear (Citrus sinenses); details: in vivo; remark: listed apart in the source
[5] = Degradation of NAC in Hoagland nutrient solution in greenhouse (without plants), HPLC; format: physicochemical; details: 187.5 mg/mL expected without degradation
Method: A study to check the degradation of N-acetyl L-cysteine (NAC) was also performed in a Hoagland nutrient solution under the same conditions in which the in vivo experiment was carried out. The nutrient solution of Hoagland was prepared and placed in the receiving party of potted Leonard (without plants), as well as 600 mg N-acetyl L-cysteine (NAC).

orange pear plants = assay: Plant development under NAC treatment (phytotoxicity); format: in vivo, orange pear (Citrus sinenses)
Method: 2. Experiments using NAC on infected plants: An analysis was performed with quantitative PCR, as described in sequence, to quantify the initial population of bacteria in plants. The plants were then transferred to Leonard pots, constructed from 750 mL glass bottles, cut and painted with metallic paint to prevent light penetration. Previously autoclaved, vermiculite and sand were added to the top of the vessel and in the collecting part, a Hoagland Arnon (1950) nutrient solution (FIG. 8). Two experiments were performed with different doses of N-acetyl L-cysteine (NAC), both conducted in a greenhouse (see table 1 below).
The first of the experiments was a pilot, in which 120 mg and 600 mg of N-acetyl L -cysteine (NAC) were added to 250 mL of Hoagland & Arnon (1950). Control plants were also maintained without addition of N-acetyl L-cysteine (NAC). The second test had plants to which were added 120 mg, 600 mg and 1500 mg L30 N-acetyl cysteine (NAC) along with 250 mL of nutrient solution of Hoagland & Arnon (1950) and control experiments without the addition of the compound. 4 biological repetitions were performed for each treatment in each experiment.

[6] = tested on: Streptococcus epidermidis, and Haemophilus influenzae, Moraxella catarrhalis; details: Zheng et al., 1999; OLOFSSON et al., 2003; cited from earlier work
[7] = tested on: Peseudomonas aeruginosa, Klebsiella pneumoniae Enterobacter cloacae, and Staphylococcus aureus; details: Parry et al. (1976); cited from earlier work
[8] = Quantification of NAC by HPLC in nutrient solution of Leonard pots with plants (uptake by the plant); details: for Measured Conc of NAC in the samples collected: nutrient solution after one day with the plant

SMILES: CC(=O)N[C@@H](CS)C(=O)O [NAC, N-acetyl L-cysteine]
- cell mass of biofilms compared to the control condition (X. fastidiosa biofilm; different doses of NAC (1, 2, 6 mg/mL), 14 days): reduced compared to the control condition
- cell mass of planktonic cells (X. fastidiosa biofilm; different doses of NAC (1, 2, 6 mg/mL), planktonic fraction): increase in mass
- biofilm formation (X. fastidiosa biofilm; doses of 1.0, 2.0 or 6.0 mg/mL): inhibited biofilm formation
- CFU/mL in biofilm vs control (X. fastidiosa [1]; 1 mg/mL NAC): lower than in the control biofilm
- reduction of number of living cells present in the biofilm (X. fastidiosa [1]; 6 mg/mL NAC): ~100%
- toxic action towards X. fastidiosa cells (X. fastidiosa [1]; in vitro, 1.0, 2.0 or 6.0 mg/mL): toxic action; also recorded: toxic to the cells of bacteria
- CFU of planktonic cells in serial dilution (X. fastidiosa [1]; planktonic cells, NAC treatments, after 3 washes): not possible to count any CFU
- lowering of EPS between control and treatment (biofilm of X. fastidiosa; 6 mg/ml NAC): about 45%
- total amount of EPS vs control (biofilm of X. fastidiosa; NAC 1, 2, 6 mg/mL): In control, the total amount of EPS was greater
- CVC symptoms after interruption of treatment [2]: symptoms were observed to be less severe; also recorded: chlorosis spots were not observed
- CVC symptoms in the leaves [2]: visible reduction of symptoms; also recorded: some points chlorosis in the leaves, but in smaller quantities; also recorded: hardly possible to see symptoms; also recorded: visibly smaller
- control of the bacterium (symptoms and number of bacterial cells in leaves) [2]: effective in controlling the bacterium
- symptoms in treated plants [2]: significant reduction of symptoms
- symptoms later than two months after interruption of treatment [2]: resurgence of symptoms
- amount of bacteria in each plant by qPCR (X. fastidiosa [3]): does not appear to have been affected
- number of X. fastidiosa cells isolated from plants after treatment (X. fastidiosa [4]): decrease in the number of X. fastidiosa cells; also recorded: strong decrease of bacteria
- concentration of NAC remaining in Hoagland solution ([5]; after 1 day in greenhouse): 143140 µg/mL
- concentration of NAC remaining in Hoagland solution ([5]; after 7 days in greenhouse): 63220 µg/mL
- concentration of NAC remaining in Hoagland solution ([5]; after 14 days in greenhouse): 3150 µg/mL
- plant development (orange pear plants; 1500 mg NAC in 250 mL nutrient solution): plant development was clearly affected; also recorded: fall of leaves, wilting and visible damage to the physiological development of the plant
- plant development after interruption of treatment (orange pear plants; 1500 mg NAC, two months in soil without treatment): remained less developed
- plant development (orange pear plants; lower doses (120 and 600 mg) NAC): do not cause problems for plant development
- adhesion of human pathogenic bacteria in epithelial cells and surface abiotic [6]: reduce the adhesion
- efficiency regarding the adhesion of bacteria [7]: demonstrated efficiency
- absorption of the substance by the plant ([8]; 1500 mg NAC in 250 mL): absorption of the substance by the plant does not occur
- transport of NAC by the plant ([8]; measured concentrations below those expected (lower doses)): could be transported by the plant
- Measured Conc of NAC in the samples collected ([8]; total NAC 120 mg (expected 0.48 mg/mL)): 0.288 mg/mL
- Measured Conc of NAC in the samples collected ([8]; total NAC 600 mg (expected 2.4 mg/mL)): 1.98 mg/mL
- Measured Conc of NAC in the samples collected ([8]; total NAC 1500 mg (expected 6.0 mg/mL)): 6.156 mg/mL
